Literature values as cited in US20110028498A1, “METHOD FOR EVALUATING PATIENTS FOR TREATMENT WITH DRUGS TARGETING RET RECEPTOR TYROSINE KINASE” (priority 2006, published 2011).

Tested on: RET-dependent thyroid tumour cell growth
Conditions: in vitro, literature

Structure (SMILES): COc1cc2c(Nc3ccc(Br)cc3F)ncnc2cc1OCC1CCN(C)CC1 [vandetanib, 4-(4-bromo-2-fluoroanilino)-6-methoxy-7-(1-methylpiperidin-4-ylmethoxy)quinazoline]
- growth-inhibitory effect on RET-dependent thyroid tumour cell growth: strong growth-inhibitory effect
